A short description of this series: Toxicity of the inducer doxycycline in mice. Format: in vivo, BALB/c mice. The note with it: 200 mg/kg dox i.p.; also seen in control mice without vector. The protocol: In view of the fact that the luciferase activity levels obtained in the induced state were very low, the decision was made to increase the dose of inducer. To this end, two consecutive doses of 100 and 200 mg/kg of dox were administered by i.p. route, separated by a 14-day period.
The luciferase activity in the hepatic area was measured at 24 hours post-induction. […] These symptoms were also observed in the control mice, those without a vector. The system's maximum rate of induction is reached at a dose of 100 mg/kg of dox, and is approximately 10-fold.

Consider `C[C@H]1c2cccc(O)c2C(=O)C2=C(O)[C@]3(O)C(=O)C(C(N)=O)=C(O)[C@@H](N(C)C)[C@@H]3[C@@H](O)[C@@H]21` [dox, doxycycline], for which the dox-mediated toxicity result was “several mice died”.
